# In ChEMBL document CHEMBL1201862, “PubChem BioAssay data set” (2004):
# The source made the active and inactive calls.
# Key:
# [1] = growth suppression of PTEN-null colon cells, dose response, cell-based, HCT116 PTEN knockout (AID 1047); assay type: functional;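 note: HCT116 colon tumor cells with PTEN knocked out; cells exposed to compound for 60 hours before readout; potency for loss of cell viability measured by luminescence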
# [2] = target: T1, Apoptotic protease-activating factor 1 (Homo sapiens, UniProt O14727); assay type: functional
# T1 sequence (O14727 whole entry): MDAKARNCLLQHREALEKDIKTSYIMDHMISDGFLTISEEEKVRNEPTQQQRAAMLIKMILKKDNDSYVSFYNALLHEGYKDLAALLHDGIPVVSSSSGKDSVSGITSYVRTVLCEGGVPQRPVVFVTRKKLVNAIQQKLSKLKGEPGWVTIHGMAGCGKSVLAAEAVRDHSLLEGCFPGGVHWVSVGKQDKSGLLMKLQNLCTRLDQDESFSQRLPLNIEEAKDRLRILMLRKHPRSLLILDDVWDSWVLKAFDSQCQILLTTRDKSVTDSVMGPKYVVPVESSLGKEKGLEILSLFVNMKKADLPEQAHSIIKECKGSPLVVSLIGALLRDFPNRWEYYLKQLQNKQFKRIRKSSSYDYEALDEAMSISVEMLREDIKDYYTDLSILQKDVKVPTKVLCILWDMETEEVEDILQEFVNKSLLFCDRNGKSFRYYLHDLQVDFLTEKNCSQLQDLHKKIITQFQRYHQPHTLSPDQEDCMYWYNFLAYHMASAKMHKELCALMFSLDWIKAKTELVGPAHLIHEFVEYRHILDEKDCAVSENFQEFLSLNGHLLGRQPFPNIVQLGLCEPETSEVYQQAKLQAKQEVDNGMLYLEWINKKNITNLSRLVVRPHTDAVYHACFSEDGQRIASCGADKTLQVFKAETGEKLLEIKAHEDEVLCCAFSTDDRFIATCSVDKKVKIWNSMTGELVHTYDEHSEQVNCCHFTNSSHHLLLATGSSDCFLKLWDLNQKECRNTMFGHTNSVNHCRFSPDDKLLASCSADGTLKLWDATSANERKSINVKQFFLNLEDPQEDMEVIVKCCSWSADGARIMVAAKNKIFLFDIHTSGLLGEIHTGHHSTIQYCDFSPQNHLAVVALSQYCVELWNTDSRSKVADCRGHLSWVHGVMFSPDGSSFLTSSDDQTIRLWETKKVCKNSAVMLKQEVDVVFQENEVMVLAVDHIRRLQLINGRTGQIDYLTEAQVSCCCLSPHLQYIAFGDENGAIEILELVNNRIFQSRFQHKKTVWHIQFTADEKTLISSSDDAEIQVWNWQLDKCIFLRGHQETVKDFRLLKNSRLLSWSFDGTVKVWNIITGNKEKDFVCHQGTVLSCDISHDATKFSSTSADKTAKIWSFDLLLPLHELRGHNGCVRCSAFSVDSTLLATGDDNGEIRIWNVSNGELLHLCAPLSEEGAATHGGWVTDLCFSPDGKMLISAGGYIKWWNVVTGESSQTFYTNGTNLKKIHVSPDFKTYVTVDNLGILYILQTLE
# [3] = growth suppression of beta-catenin-knockout colon cells, dose response, cell-based, HCT116, human colon tumor (AID 1045); assay type: functional;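 note: HCT116 colon tumor cells with beta catenin knocked out; cells exposed to compound for 60 hours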
# [4] = target: T2, Mitochondrial peptide methionine sulfoxide reductase (Bos taurus, UniProt P54149); assay: Absorbance-based biochemical high throughput dose response assay for activators of Methionine sulfoxide reductase A (MsrA).; assay type: functional
# T2 sequence (P54149 whole entry): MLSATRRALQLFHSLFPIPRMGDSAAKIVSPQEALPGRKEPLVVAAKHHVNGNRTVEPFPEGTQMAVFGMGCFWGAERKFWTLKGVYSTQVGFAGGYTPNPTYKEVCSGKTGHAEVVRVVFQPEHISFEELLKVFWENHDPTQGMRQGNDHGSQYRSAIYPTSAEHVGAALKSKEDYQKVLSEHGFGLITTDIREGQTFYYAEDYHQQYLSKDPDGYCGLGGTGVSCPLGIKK
# [5] = target: T3, Tyrosyl-DNA phosphodiesterase 2 (Homo sapiens, UniProt O95551); assay: human TDP2 enzyme inhibitors, dose response, biochemical, epi absorbance, IC50 (AID 743297)
# T3 sequence (O95551 whole entry): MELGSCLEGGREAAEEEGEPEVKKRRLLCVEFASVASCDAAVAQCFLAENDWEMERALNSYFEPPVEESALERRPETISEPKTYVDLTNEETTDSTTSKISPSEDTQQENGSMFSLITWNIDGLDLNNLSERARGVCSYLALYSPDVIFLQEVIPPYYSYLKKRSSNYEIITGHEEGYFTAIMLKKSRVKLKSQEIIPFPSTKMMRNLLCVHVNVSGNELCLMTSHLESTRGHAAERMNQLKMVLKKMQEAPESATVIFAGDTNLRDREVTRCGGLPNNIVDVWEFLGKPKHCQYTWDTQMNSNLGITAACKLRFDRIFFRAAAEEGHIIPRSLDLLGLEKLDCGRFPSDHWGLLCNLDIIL
# [6] = target: Casein kinase I isoform alpha (Homo sapiens, UniProt P48729); assay type: functional
# Chain of Casein kinase I isoform alpha (P48729 whole entry, canonical isoform): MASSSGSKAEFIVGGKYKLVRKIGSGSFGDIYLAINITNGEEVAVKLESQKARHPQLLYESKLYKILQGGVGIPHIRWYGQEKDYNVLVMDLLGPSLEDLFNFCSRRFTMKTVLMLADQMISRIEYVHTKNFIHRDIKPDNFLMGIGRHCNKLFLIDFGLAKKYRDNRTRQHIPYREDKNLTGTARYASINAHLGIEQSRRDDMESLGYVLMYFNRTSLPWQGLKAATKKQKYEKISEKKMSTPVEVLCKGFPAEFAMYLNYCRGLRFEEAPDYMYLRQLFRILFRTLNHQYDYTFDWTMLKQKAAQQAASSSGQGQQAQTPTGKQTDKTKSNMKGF
# [7] = target: Tyrosine-protein kinase Blk (Homo sapiens, UniProt P51451); assay type: functional;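 note: obtained as one member of a kinome-wide kinase assay panel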
# Chain of Tyrosine-protein kinase Blk (P51451 whole entry): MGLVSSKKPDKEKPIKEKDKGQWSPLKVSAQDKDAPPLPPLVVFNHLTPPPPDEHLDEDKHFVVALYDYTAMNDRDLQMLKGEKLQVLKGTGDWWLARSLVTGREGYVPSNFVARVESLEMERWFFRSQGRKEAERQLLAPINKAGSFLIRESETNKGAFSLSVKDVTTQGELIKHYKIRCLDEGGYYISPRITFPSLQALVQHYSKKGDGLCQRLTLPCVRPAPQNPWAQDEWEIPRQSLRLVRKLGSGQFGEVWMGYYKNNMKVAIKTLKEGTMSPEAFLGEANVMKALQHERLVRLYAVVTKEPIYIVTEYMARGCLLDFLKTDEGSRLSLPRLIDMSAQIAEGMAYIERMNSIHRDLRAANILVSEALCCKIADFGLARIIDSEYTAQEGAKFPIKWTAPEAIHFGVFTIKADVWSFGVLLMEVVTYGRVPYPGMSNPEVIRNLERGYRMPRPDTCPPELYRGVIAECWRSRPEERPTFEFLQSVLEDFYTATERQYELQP
# [8] = target: Casein kinase II subunit alpha (Homo sapiens, UniProt P68400); assay type: functional
# Chain of Casein kinase II subunit alpha (P68400 whole entry): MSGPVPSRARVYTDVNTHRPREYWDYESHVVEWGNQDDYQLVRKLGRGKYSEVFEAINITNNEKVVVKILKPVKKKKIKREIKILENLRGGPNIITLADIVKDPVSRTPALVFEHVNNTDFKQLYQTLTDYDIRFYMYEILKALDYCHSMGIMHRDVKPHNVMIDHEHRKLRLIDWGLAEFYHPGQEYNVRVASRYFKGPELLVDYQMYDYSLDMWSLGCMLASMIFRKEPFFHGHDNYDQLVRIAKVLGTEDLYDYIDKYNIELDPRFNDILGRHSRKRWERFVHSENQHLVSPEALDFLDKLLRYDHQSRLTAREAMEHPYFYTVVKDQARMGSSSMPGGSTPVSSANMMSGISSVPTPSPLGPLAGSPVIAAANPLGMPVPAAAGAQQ
# [9] = target: Dual specificity tyrosine-phosphorylation-regulated kinase 3 (Homo sapiens, UniProt O43781); assay type: functional;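 note: measured as one member of a broad kinase panel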
# Chain of Dual specificity tyrosine-phosphorylation-regulated kinase 3 (O43781 whole entry): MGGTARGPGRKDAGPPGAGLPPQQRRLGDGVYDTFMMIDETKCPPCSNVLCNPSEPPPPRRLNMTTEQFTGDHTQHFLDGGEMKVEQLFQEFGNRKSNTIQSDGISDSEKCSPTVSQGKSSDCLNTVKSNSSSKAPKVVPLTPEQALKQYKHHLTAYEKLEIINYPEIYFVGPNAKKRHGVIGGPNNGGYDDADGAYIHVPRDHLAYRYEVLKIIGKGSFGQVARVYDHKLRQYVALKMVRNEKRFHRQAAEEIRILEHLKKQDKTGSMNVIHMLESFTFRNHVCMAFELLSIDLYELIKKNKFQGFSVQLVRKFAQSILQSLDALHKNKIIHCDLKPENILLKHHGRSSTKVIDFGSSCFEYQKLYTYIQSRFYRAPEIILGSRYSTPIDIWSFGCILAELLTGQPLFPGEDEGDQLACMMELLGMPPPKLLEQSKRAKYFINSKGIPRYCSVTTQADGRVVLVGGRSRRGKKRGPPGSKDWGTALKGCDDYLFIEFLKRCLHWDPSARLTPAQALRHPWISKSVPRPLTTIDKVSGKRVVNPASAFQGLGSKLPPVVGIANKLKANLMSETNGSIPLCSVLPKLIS
# [10] = target: Cyclin-dependent kinase 1 (Homo sapiens, UniProt P06493); assay type: functional;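 note: Kinome-wide panel profiling, with the target listed as panel member CDC2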
# Chain of Cyclin-dependent kinase 1 (P06493 whole entry): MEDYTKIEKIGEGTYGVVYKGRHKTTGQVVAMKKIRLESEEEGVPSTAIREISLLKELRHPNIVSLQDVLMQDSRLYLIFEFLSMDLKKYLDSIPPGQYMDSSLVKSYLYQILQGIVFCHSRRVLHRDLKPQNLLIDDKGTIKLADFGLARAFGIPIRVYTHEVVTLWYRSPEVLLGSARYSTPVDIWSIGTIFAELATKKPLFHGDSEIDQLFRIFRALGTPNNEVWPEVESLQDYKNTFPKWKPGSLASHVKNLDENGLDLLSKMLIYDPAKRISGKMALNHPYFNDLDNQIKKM
# [11] = target: Serine/threonine-protein kinase D3 (Homo sapiens, UniProt O94806); assay type: functional;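 note: determined within a kinase panel screen, with PRKCN as the panel member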
# Chain of Serine/threonine-protein kinase D3 (O94806 whole entry): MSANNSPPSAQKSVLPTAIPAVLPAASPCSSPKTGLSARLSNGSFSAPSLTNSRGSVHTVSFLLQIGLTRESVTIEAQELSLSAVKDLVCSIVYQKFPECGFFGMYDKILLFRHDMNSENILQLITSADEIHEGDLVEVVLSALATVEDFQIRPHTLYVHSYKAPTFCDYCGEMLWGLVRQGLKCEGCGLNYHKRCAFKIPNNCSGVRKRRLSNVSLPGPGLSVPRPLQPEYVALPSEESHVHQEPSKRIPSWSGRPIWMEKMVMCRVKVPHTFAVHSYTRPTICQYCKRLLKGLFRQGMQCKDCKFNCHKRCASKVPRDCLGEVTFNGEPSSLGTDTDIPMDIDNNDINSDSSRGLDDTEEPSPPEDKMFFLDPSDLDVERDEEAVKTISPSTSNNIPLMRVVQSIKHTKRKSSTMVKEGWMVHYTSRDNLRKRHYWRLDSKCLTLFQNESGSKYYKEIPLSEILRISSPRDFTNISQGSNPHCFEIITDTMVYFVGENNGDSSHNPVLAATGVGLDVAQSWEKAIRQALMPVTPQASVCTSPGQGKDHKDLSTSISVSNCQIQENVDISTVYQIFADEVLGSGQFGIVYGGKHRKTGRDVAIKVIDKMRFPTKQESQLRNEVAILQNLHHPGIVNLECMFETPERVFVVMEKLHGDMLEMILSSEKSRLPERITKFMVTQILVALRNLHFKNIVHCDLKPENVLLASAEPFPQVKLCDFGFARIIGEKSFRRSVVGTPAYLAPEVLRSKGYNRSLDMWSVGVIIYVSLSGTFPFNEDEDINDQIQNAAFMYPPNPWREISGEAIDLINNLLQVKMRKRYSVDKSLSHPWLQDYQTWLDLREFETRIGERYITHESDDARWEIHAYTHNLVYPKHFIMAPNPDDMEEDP
# [12] = target: Mitogen-activated protein kinase 1 (Homo sapiens, UniProt P28482); assay type: functional
# Chain of Mitogen-activated protein kinase 1 (P28482 whole entry): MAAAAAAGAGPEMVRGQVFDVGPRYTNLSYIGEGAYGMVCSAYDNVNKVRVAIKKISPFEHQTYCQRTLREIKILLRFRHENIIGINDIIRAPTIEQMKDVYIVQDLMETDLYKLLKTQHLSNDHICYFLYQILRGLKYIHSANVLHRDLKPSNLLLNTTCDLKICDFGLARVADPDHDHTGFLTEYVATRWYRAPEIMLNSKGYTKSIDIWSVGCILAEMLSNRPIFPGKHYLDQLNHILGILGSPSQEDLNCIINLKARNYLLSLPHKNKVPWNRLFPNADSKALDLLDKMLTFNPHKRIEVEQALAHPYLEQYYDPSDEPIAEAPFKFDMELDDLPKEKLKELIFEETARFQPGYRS
# [13] = target: T4, Nuclear receptor subfamily 0 group B member 1 (Homo sapiens, UniProt P51843); assay type: functional, cell-based;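 note: HEK293T cells transfected with SF-1 and DAX-1 plus StAR promoter luciferase reporter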
# T4 sequence (P51843 whole entry): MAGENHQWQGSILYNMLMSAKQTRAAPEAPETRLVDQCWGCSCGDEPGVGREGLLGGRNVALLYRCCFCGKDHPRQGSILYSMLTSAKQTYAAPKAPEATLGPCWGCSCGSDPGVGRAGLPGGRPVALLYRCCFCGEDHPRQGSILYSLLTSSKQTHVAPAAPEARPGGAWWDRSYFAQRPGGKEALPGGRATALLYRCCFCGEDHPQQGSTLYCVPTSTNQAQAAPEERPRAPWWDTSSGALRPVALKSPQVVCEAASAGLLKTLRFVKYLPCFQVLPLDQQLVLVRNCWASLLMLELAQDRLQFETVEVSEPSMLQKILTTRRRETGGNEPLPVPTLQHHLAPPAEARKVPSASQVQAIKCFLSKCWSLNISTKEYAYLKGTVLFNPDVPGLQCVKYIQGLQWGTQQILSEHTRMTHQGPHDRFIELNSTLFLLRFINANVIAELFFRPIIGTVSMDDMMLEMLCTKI
# [14] = MC4R antagonists, dose response, counter-screen for LGR2 antagonist project, cell-based, plate reader, cherry pick (AID 743444); assay type: functional;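 note: transfected HEK 293 cells stimulated with alpha-MSH peptide; potency of inhibitors of the alpha-MSH evoked signal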
# [15] = cytotoxicity toward DRD oncogenic fibroblasts, dose response, cell-based, non-viral oncogenic, luminescence (AID 1934); assay type: functional; details: Homo sapiens
structure (smiles),measurement,setting,value
Cc1ccc(C(=O)c2c(C)oc3c2C(=O)C(=O)c2ccccc2-3)cc1,EC50,[1],3.11 µM (active)
same,IC50,[2],8.09 µM (active)
same,EC50,[3],2.66 µM (active)
CN(C)c1ncc(C2=C(Cl)C(=O)C(N3CCCC3)=C(Cl)C2=O)s1,EC50,[1],5.41 µM (active)
same,IC50,[2],25 µM (active)
same,EC50,[3],6.06 µM (active)
O=C1C(Cl)=C(NCc2cccnc2)C(=O)c2ccccc21,EC50,[4],> 104 µM (inactive)
same,IC50,[2],10.1 µM (active)
O=C1C(O)=C/C(=N\c2ccccc2O)c2ccccc21,IC50,[5],37.7 µM (inactive)
same,EC50,[4],> 104 µM (inactive)
same,IC50,[2],2.61 µM (active)
O=C1NC(=S)SC1=C1C(=O)Nc2ccc(Br)cc21,Ki,[6],> 6.31 µM (inactive)
same,Ki,[7],> 1.58 µM (inactive)
same,Ki,[8],0.631 µM (active)
same,Ki,[9],> 6.31 µM (inactive)
same,Ki,[10],> 7.94 µM (inactive)
same,Ki,[11],> 10 µM (inactive)
same,Ki,[12],> 7.94 µM (inactive)
Cc1cnc(NC(=O)c2sc3ccccc3c2Cl)s1,IC50,[13],> 67.5 µM (inactive)
same,AC50,[14],3.25 µM (active)
Nc1ccc(Br)c2cccnc12,IC50,[5],75.5 µM (inactive)
same,IC50,[2],39.1 µM (active)
Cc1ccc(Nc2cc(C)nn2-c2nc(C)cc(O)n2)cc1,EC50,[15],22.4 µM (active)
same,EC50,cells,0.074 µM (active)
